Reference: PubChem BioAssay AID1963972 (Molecular Pharmacology Branch, DTP, NCI, 2024)

Tested on: 945468-187-T-J2-PDC spheroids viability
Assay: Anticancer human tumor 945468-187-T-J2-PDC patient-derived rectal carcinoma cell line growth inhibition [PI3K]
Details: spheroids with HUVEC and MSC; for IC50: curve of first compound; for viability, T/C: stronger effect = lower value
Summary of the method: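 We assembled tumor spheroids that included a stromal compartment of HUVEC and MSCs, then exposed them to targeted agents alone and together with PI3K pathway inhibitors. Concentration series descended by half-log from clinically achievable Cmax levels. Viability served as the endpoint.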

[1] = second compound 0.0316 µM, first compound 0.0316 µM
[2] = second compound 0.0316 µM, first compound 0.1 µM
[3] = second compound 0.0316 µM, first compound 0.316 µM
[4] = second compound 0.0316 µM, first compound 1 µM
[5] = second compound 0.0316 µM, first compound 3.16 µM
[6] = second compound 0.0316 µM, first compound 10 µM
[7] = second compound 0.1 µM, first compound 0.0316 µM
[8] = second compound 0.1 µM, first compound 0.1 µM
[9] = second compound 0.1 µM, first compound 0.316 µM
[10] = second compound 0.1 µM, first compound 1 µM
[11] = second compound 0.1 µM, first compound 3.16 µM
[12] = second compound 0.1 µM, first compound 10 µM
[13] = second compound 0.316 µM, first compound 0.0316 µM
[14] = second compound 0.316 µM, first compound 0.1 µM
[15] = second compound 0.316 µM, first compound 0.316 µM
[16] = second compound 0.316 µM, first compound 1 µM
[17] = second compound 0.316 µM, first compound 3.16 µM
[18] = second compound 0.316 µM, first compound 10 µM
[19] = second compound 1 µM, first compound 0.0316 µM
[20] = second compound 1 µM, first compound 0.1 µM
[21] = second compound 1 µM, first compound 0.316 µM
[22] = second compound 1 µM, first compound 1 µM
[23] = second compound 1 µM, first compound 3.16 µM
[24] = second compound 1 µM, first compound 10 µM
[25] = second compound 3.16 µM, first compound 0.0316 µM
[26] = second compound 3.16 µM, first compound 0.1 µM
[27] = second compound 3.16 µM, first compound 0.316 µM
[28] = second compound 3.16 µM, first compound 1 µM
[29] = second compound 3.16 µM, first compound 3.16 µM
[30] = second compound 3.16 µM, first compound 10 µM
[31] = second compound 10 µM, first compound 0.0316 µM
[32] = second compound 10 µM, first compound 0.1 µM
[33] = second compound 10 µM, first compound 0.316 µM
[34] = second compound 10 µM, first compound 1 µM
[35] = second compound 10 µM, first compound 3.16 µM
[36] = second compound 10 µM, first compound 10 µM
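Further: spheroids exposed to compounds for seven days before reading.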

SMILES: C#Cc1c(F)ccc2cc(O)cc(-c3ncc4c(N5CC6CCC(C5)N6)nc(OCC56CCCN5CC(F)C6)nc4c3F)c12 (stereo unspecified) + CC(Nc1ncnc2nc[nH]c12)c1cc2cccc(Cl)c2c(=O)n1-c1ccccc1
- IC50 (second compound 0.0316 µM): > 10 µM
- IC50 (second compound 0.1 µM): > 10 µM
- IC50 (second compound 0.316 µM): > 10 µM
- IC50 (second compound 1 µM): > 10 µM
- IC50 (second compound 3.16 µM): > 10 µM
- IC50 (second compound 10 µM): > 10 µM
- viability, T/C [1]: 101%
- viability, T/C [2]: 99.8%
- viability, T/C [3]: 95.8%
- viability, T/C [4]: 86.4%
- viability, T/C [5]: 102%
- viability, T/C [6]: 117%
- viability, T/C [7]: 111%
- viability, T/C [8]: 110%
- viability, T/C [9]: 103%
- viability, T/C [10]: 134%
- viability, T/C [11]: 107%
- viability, T/C [12]: 106%
- viability, T/C [13]: 100%
- viability, T/C [14]: 116%
- viability, T/C [15]: 87.1%
- viability, T/C [16]: 95.3%
- viability, T/C [17]: 116%
- viability, T/C [18]: 111%
- viability, T/C [19]: 96.3%
- viability, T/C [20]: 104%
- viability, T/C [21]: 113%
- viability, T/C [22]: 106%
- viability, T/C [23]: 96.2%
- viability, T/C [24]: 114%
- viability, T/C [25]: 91%
- viability, T/C [26]: 98.6%
- viability, T/C [27]: 107%
- viability, T/C [28]: 125%
- viability, T/C [29]: 114%
- viability, T/C [30]: 105%
- viability, T/C [31]: 114%
- viability, T/C [32]: 140%
- viability, T/C [33]: 149%
- viability, T/C [34]: 99.7%
- viability, T/C [35]: 116%
- viability, T/C [36]: 112%

SMILES: C=CC(=O)N1CCN(c2nc(=O)n(-c3c(C)ccnc3C(C)C)c3nc(-c4c(O)cccc4F)c(F)cc23)C(C)C1 (stereo unspecified) + CC(Nc1ncnc2nc[nH]c12)c1cc2cccc(Cl)c2c(=O)n1-c1ccccc1
- IC50 (second compound 0.0316 µM): > 10 µM
- IC50 (second compound 0.1 µM): > 10 µM
- IC50 (second compound 0.316 µM): > 10 µM
- IC50 (second compound 1 µM): > 10 µM
- IC50 (second compound 3.16 µM): > 10 µM
- IC50 (second compound 10 µM): > 10 µM
- viability, T/C [1]: 103%
- viability, T/C [2]: 124%
- viability, T/C [3]: 100%
- viability, T/C [4]: 114%
- viability, T/C [5]: 111%
- viability, T/C [6]: 95.8%
- viability, T/C [7]: 97.5%
- viability, T/C [8]: 82.7%
- viability, T/C [9]: 91.5%
- viability, T/C [10]: 85.2%
- viability, T/C [11]: 93%
- viability, T/C [12]: 136%
- viability, T/C [13]: 109%
- viability, T/C [14]: 114%
- viability, T/C [15]: 96.3%
- viability, T/C [16]: 105%
- viability, T/C [17]: 106%
- viability, T/C [18]: 84.7%
- viability, T/C [19]: 87.6%
- viability, T/C [20]: 98.8%
- viability, T/C [21]: 113%
- viability, T/C [22]: 104%
- viability, T/C [23]: 107%
- viability, T/C [24]: 89.3%
- viability, T/C [25]: 94.6%
- viability, T/C [26]: 106%
- viability, T/C [27]: 104%
- viability, T/C [28]: 97.8%
- viability, T/C [29]: 99.6%
- viability, T/C [30]: 104%
- viability, T/C [31]: 124%
- viability, T/C [32]: 122%
- viability, T/C [33]: 116%
- viability, T/C [34]: 123%
- viability, T/C [35]: 92.4%
- viability, T/C [36]: 90.4%

SMILES: CC(Cn1ccc(-c2ccc(C#N)c(Cl)c2)n1)NC(=O)c1cc(C(C)O)[nH]n1 (stereo unspecified) + CC(Nc1ncnc2nc[nH]c12)c1cc2cccc(Cl)c2c(=O)n1-c1ccccc1
- IC50 (second compound 0.0316 µM): > 10 µM
- IC50 (second compound 0.1 µM): > 10 µM
- IC50 (second compound 0.316 µM): > 10 µM
- IC50 (second compound 1 µM): > 10 µM
- IC50 (second compound 3.16 µM): > 10 µM
- IC50 (second compound 10 µM): > 10 µM
- viability, T/C [1]: 99.9%
- viability, T/C [2]: 75.6%
- viability, T/C [3]: 108%
- viability, T/C [4]: 104%
- viability, T/C [5]: 99.9%
- viability, T/C [6]: 89.3%
- viability, T/C [7]: 128%
- viability, T/C [8]: 105%
- viability, T/C [9]: 106%
- viability, T/C [10]: 95.3%
- viability, T/C [11]: 117%
- viability, T/C [12]: 127%
- viability, T/C [13]: 111%
- viability, T/C [14]: 86.3%
- viability, T/C [15]: 87%
- viability, T/C [16]: 89.3%
- viability, T/C [17]: 91%
- viability, T/C [18]: 91.6%
- viability, T/C [19]: 87.2%
- viability, T/C [20]: 97.8%
- viability, T/C [21]: 78.4%
- viability, T/C [22]: 88.9%
- viability, T/C [23]: 82.6%
- viability, T/C [24]: 106%
- viability, T/C [25]: 92.7%
- viability, T/C [26]: 94.1%
- viability, T/C [27]: 103%
- viability, T/C [28]: 89.6%
- viability, T/C [29]: 92.3%
- viability, T/C [30]: 85.3%
- viability, T/C [31]: 113%
- viability, T/C [32]: 104%
- viability, T/C [33]: 88.7%
- viability, T/C [34]: 111%
- viability, T/C [35]: 109%
- viability, T/C [36]: 108%
